In PubChem BioAssay AID2060902 (Molecular Pharmacology Branch, DTP, NCI, 2025):

Tested on: 485368-065-R3-J5-PDC spheroids with HUVEC/MSC, viability
Assay: Anticancer human tumor 485368-065-R3-J5-PDC patient-derived pancreatic carcinoma cell line growth inhibition [RAS]
Conditions: for IC50: curve of first compound; for viability, T/C: stronger effect = lower value
Summary of the method: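 Multi-cell-type spheroids: tumor cells plus HUVEC endothelial cells and mesenchymal stem cells. RAS-pathway inhibitors were combined with targeted agents, each dosed in half-log steps down from clinical Cmax, or from 10 microM when Cmax was unknown.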

[1] = second compound 0.00316 µM, first compound 0.0316 µM
[2] = second compound 0.00316 µM, first compound 0.1 µM
[3] = second compound 0.00316 µM, first compound 0.316 µM
[4] = second compound 0.00316 µM, first compound 1 µM
[5] = second compound 0.01 µM, first compound 0.0316 µM
[6] = second compound 0.01 µM, first compound 0.1 µM
[7] = second compound 0.01 µM, first compound 0.316 µM
[8] = second compound 0.01 µM, first compound 1 µM
[9] = second compound 0.0316 µM, first compound 0.0316 µM
[10] = second compound 0.0316 µM, first compound 0.1 µM
[11] = second compound 0.0316 µM, first compound 0.316 µM
[12] = second compound 0.0316 µM, first compound 1 µM
[13] = second compound 0.1 µM, first compound 0.0316 µM
[14] = second compound 0.1 µM, first compound 0.1 µM
[15] = second compound 0.1 µM, first compound 0.316 µM
[16] = second compound 0.1 µM, first compound 1 µM
[17] = second compound 0.316 µM, first compound 0.0316 µM
[18] = second compound 0.316 µM, first compound 0.1 µM
[19] = second compound 0.316 µM, first compound 0.316 µM
[20] = second compound 0.316 µM, first compound 1 µM
[21] = second compound 1 µM, first compound 0.0316 µM
[22] = second compound 1 µM, first compound 0.1 µM
[23] = second compound 1 µM, first compound 0.316 µM
[24] = second compound 1 µM, first compound 1 µM
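Note: spheroids exposed to agents for seven days before readout.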

CCN1CCN(Cc2ccc(Nc3ncc(F)c(-c4cc(F)c5nc(C)n(C(C)C)c5c4)n3)nc2)CC1 + C=CC(=O)N1CCN(c2nc(OCC3CCCN3C)nc3c(F)c(-c4nc(N)cc(C)c4C(F)(F)F)c(Cl)cc23)C(C)C1
IC50 (second compound 0.00316 µM): 316 nM | IC50 (second compound 0.01 µM): 300 nM | IC50 (second compound 0.0316 µM): 454 nM | IC50 (second compound 0.1 µM): 644 nM | IC50 (second compound 0.316 µM): 604 nM | IC50 (second compound 1 µM): 627 nM | viability, T/C (second compound 0.00316 µM, first compound 0.00316 µM): 107% | viability, T/C (second compound 0.00316 µM, first compound 0.01 µM): 95.8% | viability, T/C [1]: 82.5% | viability, T/C [2]: 61.7% | viability, T/C [3]: 48.1% | viability, T/C [4]: 47% | viability, T/C (second compound 0.01 µM, first compound 0.00316 µM): 107% | viability, T/C (second compound 0.01 µM, first compound 0.01 µM): 96.7% | viability, T/C [5]: 81.3% | viability, T/C [6]: 64.3% | viability, T/C [7]: 49.6% | viability, T/C [8]: 38% | viability, T/C (second compound 0.0316 µM, first compound 0.00316 µM): 106% | viability, T/C (second compound 0.0316 µM, first compound 0.01 µM): 98.8% | viability, T/C [9]: 82.1% | viability, T/C [10]: 73.4% | viability, T/C [11]: 52.9% | viability, T/C [12]: 40.5% | viability, T/C (second compound 0.1 µM, first compound 0.00316 µM): 94.8% | viability, T/C (second compound 0.1 µM, first compound 0.01 µM): 88.1% | viability, T/C [13]: 90.1% | viability, T/C [14]: 76.8% | viability, T/C [15]: 60.2% | viability, T/C [16]: 43.8% | viability, T/C (second compound 0.316 µM, first compound 0.00316 µM): 97.5% | viability, T/C (second compound 0.316 µM, first compound 0.01 µM): 96.2% | viability, T/C [17]: 81% | viability, T/C [18]: 65.5% | viability, T/C [19]: 62.4% | viability, T/C [20]: 42.7% | viability, T/C (second compound 1 µM, first compound 0.00316 µM): 106% | viability, T/C (second compound 1 µM, first compound 0.01 µM): 88.3% | viability, T/C [21]: 80.3% | viability, T/C [22]: 68% | viability, T/C [23]: 57.3% | viability, T/C [24]: 44.8%

C[C@@H](NC(=O)c1ncnc(N)c1Cl)c1ncc(C(=O)Nc2cc(C(F)(F)F)c(Cl)cn2)s1 + C=CC(=O)N1CCN(c2nc(OCC3CCCN3C)nc3c(F)c(-c4nc(N)cc(C)c4C(F)(F)F)c(Cl)cc23)C(C)C1
IC50 (second compound 0.00316 µM): > 10000 nM | IC50 (second compound 0.01 µM): > 10000 nM | IC50 (second compound 0.0316 µM): > 10000 nM | IC50 (second compound 0.1 µM): > 10000 nM | IC50 (second compound 0.316 µM): > 10000 nM | IC50 (second compound 1 µM): > 10000 nM | viability, T/C [1]: 119% | viability, T/C [2]: 99.9% | viability, T/C [3]: 104% | viability, T/C [4]: 95% | viability, T/C (second compound 0.00316 µM, first compound 3.16 µM): 86.6% | viability, T/C (second compound 0.00316 µM, first compound 10 µM): 73.7% | viability, T/C [5]: 103% | viability, T/C [6]: 105% | viability, T/C [7]: 95.8% | viability, T/C [8]: 104% | viability, T/C (second compound 0.01 µM, first compound 3.16 µM): 92.1% | viability, T/C (second compound 0.01 µM, first compound 10 µM): 77% | viability, T/C [9]: 107% | viability, T/C [10]: 94.8% | viability, T/C [11]: 104% | viability, T/C [12]: 104% | viability, T/C (second compound 0.0316 µM, first compound 3.16 µM): 91.8% | viability, T/C (second compound 0.0316 µM, first compound 10 µM): 78.6% | viability, T/C [13]: 108% | viability, T/C [14]: 103% | viability, T/C [15]: 107% | viability, T/C [16]: 103% | viability, T/C (second compound 0.1 µM, first compound 3.16 µM): 94.6% | viability, T/C (second compound 0.1 µM, first compound 10 µM): 77% | viability, T/C [17]: 104% | viability, T/C [18]: 106% | viability, T/C [19]: 107% | viability, T/C [20]: 102% | viability, T/C (second compound 0.316 µM, first compound 3.16 µM): 98.6% | viability, T/C (second compound 0.316 µM, first compound 10 µM): 80.2% | viability, T/C [21]: 105% | viability, T/C [22]: 111% | viability, T/C [23]: 94.7% | viability, T/C [24]: 104% | viability, T/C (second compound 1 µM, first compound 3.16 µM): 96.5% | viability, T/C (second compound 1 µM, first compound 10 µM): 81.4%
